Source: patent US20220401514A1, “ANTIMICROBIAL, BACTERIOPHAGE-DERIVED POLYPEPTIDES AND THEIR USE AGAINST GRAM-NEGATIVE AND ACID-FAST BACTERIA” (CONTRAFECT CORPORATION, priority 2019, published 2022)

What was measured:
[1] = tested on: P. aeruginosa strain PAO1; test: MIC against PAO1 in Mueller-Hinton broth with 50% human plasma or human serum; assay type: cell-based, Pseudomonas aeruginosa; conditions: PAO1; for Minimal inhibitory concentration, Human Plasma: Mueller-Hinton broth with 50% human plasma; for Minimal inhibitory concentration, Human Serum: Mueller-Hinton broth with human serum
[2] = tested on: A. baumannii strain BAA-747 persister cells; test: Activity against persister cells, A. baumannii; assay type: cell-based, Acinetobacter baumannii; conditions: A. baumannii BAA-747 persister cells; for MIC Log10 (CFU/mL) Run #1 / MIC Log10 (CFU/mL) Run #2 / MIC Log10 (CFU/mL) Run #3: 1 hour at 37° C., limit of detection 1.6-log10 CFU/mL; for MIC Log10 (CFU/mL) Average: average of 3 runs; for Delta Log: log10 CFU/mL reduction as compared to buffer
[3] = tested on: P. aeruginosa strain PA20 persister cells; test: Activity against persister cells, P. aeruginosa; assay type: cell-based, Pseudomonas aeruginosa; conditions: P. aeruginosa PA20 persister cells; for Delta Log: log10 CFU/mL reduction as compared to buffer
[4] = tested on: carbapenem-resistant P. aeruginosa clinical isolate CFS-1292; test: MIC by modified CLSI broth microdilution against P. aeruginosa CFS-1292 (CAA, CAA + human serum); assay type: cell-based, Pseudomonas aeruginosa
Enterobacter cloacae = test: microbe, parasite or virus in culture; assay type: cell-based
Procedure, shortened: (§1)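 Strains are exposed to peptide dilutions in CAA containing human serum, and the minimal inhibitory concentration is recorded.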

Escherichia coli = test: microbe, parasite or virus in culture; assay type: cell-based; conditions: for MIC (in brackets beside MBEC): control agents of Table 8
Procedure, shortened: as §1

Klebsiella pneumoniae [5] = assay type: cell-based; conditions: Klebsiella pneumoniae HM-44; CAA supplemented with human serum
Protocol: Determination of Minimal Inhibitory Concentrations (MIC).
Additional MIC testing was performed for several peptides against the ESKAPE pathogens Escherichia coli, Enterobacter cloacae, Klebsiella pneumoniae, and Acinetobacter baumannii, in CAA supplemented with human serum (Table D).

Acinetobacter baumannii = test: microbe, parasite or virus in culture; assay type: cell-based
M. smegmatis = test: 45 hr MIC against M. smegmatis (NTM), Mueller Hinton broth; assay type: cell-based, Mycobacterium smegmatis; conditions: M. smegmatis MC^2 155, Run #1
LPS = test: Endotoxin neutralization, limulus amoebocyte lysate (LAL) enzyme assay, LPS binding; assay type: biochemical; conditions: LPS 0.8 EU/mL; for LPS binding: […]-64 μg/mL, 24° C., 1 hour
Protocol: CHEM. […] The standard reference samples contained only LPS dissolved in pyrogen-free water. Solutions were mixed well and incubated at 24° C. for 1 hour, and the manufacturers' test procedure for quantitative detection of endotoxins was followed.

[6] = tested on: Stenotrophomonas-containing biofilm on explanted hemodialysis catheters; test: Antibiofilm activity in explanted hemodialysis catheters; assay type: cell-based, Stenotrophomonas spp.
Protocol: The explanted hemodialysis catheters were cut into equal length segments and bisected to expose the lumen.
The samples were treated for 4 hours at 37° C. before rinsing with Lactated Ringer's solution.
Three additional infected hemodialysis catheter samples were removed from two patients (one catheter from a first patient and two catheters from a second patient). […] The samples were incubated at 37° C. for 4 hours.

Pseudomonas aeruginosa = test: microbe, parasite or virus in culture; assay type: cell-based; conditions: P. aeruginosa (ATCC 27853); control agents of Table 8
[7] = tested on: eight different strains of five species of Gram-negative bacteria; test: MBEC in eight strains of five species of Gram-negative bacteria; assay type: cell-based; conditions: 24 h biofilm in LB, 16 h treatment
Protocol: Determination of Minimal Biofilm Eradicating Concentrations (MBEC). […] The OD600 of extracted crystal violet was determined. The MBEC value of each sample was determined as the minimum drug concentration required to remove >95% of biofilm biomass as assessed by crystal violet quantitation (in comparison to untreated controls).
MBEC values were likewise determined for Chp2, Chp2-M1, and Chp10-M1 in eight different strains of five species of Gram-negative bacteria. […] The films were then washed and stained with crystal violet to visualize the MBEC.

Klebsiella pneumoniae [8] = test: microbe, parasite or virus in culture; assay type: cell-based; conditions: control agents of Table 8
[9] = Run #1, limit of detection 2-log10 CFU/mL
[10] = Run #2, limit of detection 2-log10 CFU/mL
[11] = Run #3, limit of detection 2-log10 CFU/mL
[12] = peptide concentration 0.5 μg/mL

Substance: Protegrin 1
- Minimal inhibitory concentration, Human Plasma [1]: 1 µg/mL
- Minimal inhibitory concentration, Human Serum [1]: 4 µg/mL

Substance: Lysozyme
- MIC Log10 (CFU/mL) Run #1 [2]: 3.5 Log10 (CFU/mL)
- MIC Log10 (CFU/mL) Run #2 [2]: 5.2 Log10 (CFU/mL)
- MIC Log10 (CFU/mL) Run #3 [2]: 5.0 Log10 (CFU/mL)
- MIC Log10 (CFU/mL) Average [2]: 4.6 Log10 (CFU/mL)
- Delta Log [2]: 0.3
- Viable persister count after treatment (log10 CFU/mL) [3, 9]: 4.7 Log10 (CFU/mL)
- Viable persister count after treatment (log10 CFU/mL) [3, 10]: 4.4 Log10 (CFU/mL)
- Viable persister count after treatment (log10 CFU/mL) [3, 11]: 4.2 Log10 (CFU/mL)
- Viable persister count after treatment (log10 CFU/mL) ([3]; average of 3 runs): 4.4 Log10 (CFU/mL)
- Delta Log [3]: 0.0

Substance: MAEQYELSQEQSEQLFSETALQMHEQNELQEIMQGGIEF [Chp5]
- MIC (μg/mL) against CFS-1292 in 100% CAA (1st run/2nd run) ([4]; 100% CAA, 1st run or single value): >32 µg/mL
- MIC (μg/mL) against CFS-1292 in CAA + […] human serum ([4]; CAA + […] human serum): >32 µg/mL
- MIC (Enterobacter cloacae; Enterobacter cloacae ATCC 13047, CAA supplemented with human serum): >32 µg/mL
- MIC (Escherichia coli; Escherichia coli ATCC 25922, CAA supplemented with human serum): 4 µg/mL
- MIC (Klebsiella pneumoniae [5]): 8 µg/mL
- MIC (Acinetobacter baumannii; Acinetobacter baumannii ATCC BAA 747, CAA supplemented with human serum): >32 µg/mL
- 45 hr MIC (M. smegmatis): >64 µg/mL
- LPS binding (LPS): does not bind LPS
- % LPS Bound (LPS; [12]): 0.1%
- % LPS Bound (LPS; peptide concentration 1 μg/mL): 0.1%
- % LPS Bound (LPS; peptide concentration 2 μg/mL): 0.1%
- % LPS Bound (LPS; peptide concentration 4 μg/mL): 0.1%
- % LPS Bound (LPS; peptide concentration 8 μg/mL): 5.4%
- % LPS Bound (LPS; peptide concentration 16 μg/mL): 0.1%
- % LPS Bound (LPS; peptide concentration 32 μg/mL): 0.1%
- % LPS Bound (LPS; peptide concentration 64 μg/mL): 0.9%
- MIC Log10 (CFU/mL) Run #1 [2]: 4.1 Log10 (CFU/mL)
- MIC Log10 (CFU/mL) Run #2 [2]: 5.1 Log10 (CFU/mL)
- MIC Log10 (CFU/mL) Run #3 [2]: 4.5 Log10 (CFU/mL)
- MIC Log10 (CFU/mL) Average [2]: 4.6 Log10 (CFU/mL)
- Delta Log [2]: 0.3
- Viable persister count after treatment (log10 CFU/mL) [3, 9]: 4.4 Log10 (CFU/mL)
- Viable persister count after treatment (log10 CFU/mL) [3, 10]: 4.3 Log10 (CFU/mL)
- Viable persister count after treatment (log10 CFU/mL) [3, 11]: 3.1 Log10 (CFU/mL)
- Viable persister count after treatment (log10 CFU/mL) ([3]; average of 3 runs): 3.9 Log10 (CFU/mL)
- Delta Log [3]: 0.5

Substance: daptomycin
- eradication of catheter biofilm ([6]; first catheter sample, 4 hours at 37° C., Chp2-M1 10 μg/mL, CF-301 and daptomycin 1 μg/mL): did not
- Log10 CFU/g for Catheter Sample #2 enumerated after 24 hours of incubation at 37 °C. ([6]; treatment at 1 μg/mL): 3.72 Log10 CFU/g
- Log10 CFU/g for Catheter Sample #3 enumerated after 24 hours of incubation at 37 °C. ([6]; treatment at 1 μg/mL): 4.15 Log10 CFU/g
- Log10 CFU/g for Catheter Sample #1 (enumerated after 18 hours of incubation at 37 °C.) ([6]; treatment at 1 μg/mL, 4 hours at 37° C.): 3.66 Log10 CFU/g

Substance: LL-37 [reference compound]
- Minimal inhibitory concentration, Human Plasma [1]: >64 µg/mL
- Minimal inhibitory concentration, Human Serum [1]: >64 µg/mL
- MIC (in brackets beside MBEC) (Pseudomonas aeruginosa): (16) μg/mL
- MIC (in brackets beside MBEC) (Enterobacter cloacae; E. cloacae (CCUG 63317), control agents of Table 8): (16) μg/mL
- MIC (in brackets beside MBEC) (Escherichia coli; E. coli (ATCC 25922)): (16) μg/mL
- MIC (in brackets beside MBEC) (Escherichia coli; E. coli (ATCC 35329)): (16) μg/mL
- MIC (in brackets beside MBEC) (Escherichia coli; E. coli (EC2)): (16) μg/mL
- MIC (in brackets beside MBEC) (Acinetobacter baumannii; A. baumanni (ATCC BAA-747), control agents of Table 8): (16) μg/mL
- MBEC ([7]; A. baumanni (ATCC BAA-747)): 0.25 µg/mL
- MBEC ([7]; E. cloacae (CCUG 63317)): 8 µg/mL
- MBEC ([7]; E. coli (ATCC 25922)): 16 µg/mL
- MBEC ([7]; E. coli (ATCC 35329)): 16 µg/mL
- MBEC ([7]; E. coli (EC2)): 8 µg/mL
- MBEC ([7]; K. pneumoniae (ATCC 700603)): 32 µg/mL
- MBEC ([7]; K. pneumoniae (KP1)): 16 µg/mL
- MBEC ([7]; P. aeruginosa (ATCC 27853)): 8 µg/mL
- LPS binding (LPS): dose-dependent increases in LPS binding
- % LPS Bound (LPS; [12]): 90.6%
- % LPS Bound (LPS; peptide concentration 1 μg/mL): 92.2%
- % LPS Bound (LPS; peptide concentration 2 μg/mL): 92.9%
- % LPS Bound (LPS; peptide concentration 4 μg/mL): 92.3%
- % LPS Bound (LPS; peptide concentration 8 μg/mL): 92.4%
- % LPS Bound (LPS; peptide concentration 16 μg/mL): 92.1%
- % LPS Bound (LPS; peptide concentration 32 μg/mL): 87.3%
- % LPS Bound (LPS; peptide concentration 64 μg/mL): 75.4%
- MIC (in brackets beside MBEC) (Klebsiella pneumoniae [8]; K. pneumoniae (ATCC 700603)): (16) μg/mL
- MIC (in brackets beside MBEC) (Klebsiella pneumoniae [8]; K. pneumoniae (KP1)): (16) μg/mL

Substance: PGLa
- Minimal inhibitory concentration, Human Plasma [1]: >64 µg/mL
- Minimal inhibitory concentration, Human Serum [1]: >64 µg/mL

Substance: Pediocin (KYYGNGVTCGKHSCSVDWGKATTCIINNGAMAWATGGHQGNHKC; Bacteriocin pediocin PA-1; UniProt P29430 19-62, looked up)
- Minimal inhibitory concentration, Human Plasma [1]: >64 µg/mL
- Minimal inhibitory concentration, Human Serum [1]: >64 µg/mL
